In ChEMBL document CHEMBL5365397, “Synthesis and biological evaluation of biotinylated ZJ-101” (Bioorg Med Chem Lett, 2023):

What was measured:
HCT-116 = experiment: Growth inhibition of human HCT-116 cells measured after 48 hrs by SRB assay; format: functional, cell-based; conditions: HCT-116, 48 h
MDA-MB-231 [1] = experiment: Growth inhibition of human MDA-MB-231 cells measured after 48 hrs by SRB assay; format: functional
MCF7 = experiment: Antiproliferative activity against human MCF7 cells by Alamar Blue assay; format: functional, cell-based
HT-29 = experiment: Growth inhibition of human HT-29 cells measured after 48 hrs by SRB assay; format: functional, cell-based; conditions: HT-29, 48 h
MDA-MB-231 [2] = experiment: Antiproliferative activity against human MDA-MB-231 cells by Alamar Blue assay; format: functional, cell-based
SF-295 [3] = experiment: Growth inhibition of human SF-295 cells measured after 48 hrs by SRB assay; format: functional
SF-295 [4] = experiment: Antiproliferative activity against human SF-295 cells by Alamar Blue assay; format: functional, cell-based

SMILES	IC50 (HCT-116)	GI50 (MDA-MB-231 [1])	IC50 (MCF7)	IC50 (HT-29)	IC50 (MDA-MB-231 [2])	GI50 (SF-295 [3])	IC50 (SF-295 [4])
CC(=O)N[C@H](C)[C@@H](O)[C@@H](C)[C@@H]1OC(=O)/C=C/C=C(C)\C=C\[C@]2(C)CCC=C[C@@H]2/C=C(C)/C=C/[C@H]1C	52.7 nM	< 10 nM	40.8 nM	7.5 nM	61.1 nM	< 10 nM	–
CC1=C/C=C/C(=O)O[C@@H]([C@H](C)[C@H](O)[C@@H](C)NC(=O)CCOCCOCCOCCOCCNC(=O)CCCC[C@@H]2SC[C@@H]3NC(=O)N[C@@H]32)[C@H](C)/C=C/C(C)=C/[C@H]2C=CCC[C@@]2(C)\C=C\1	–	–	> 5000 nM	–	> 5000 nM	–	> 5 µM
